Results reported in ChEMBL document CHEMBL2094269, “WEHI/Eskitis Trypanosoma b. brucei screening data”.
“And” between values parts separate entries of the source, which are not always exact repeats. Equal entries are not always repeated.

Assays:
[1] = DNDI: Cytotoxicity against human MRC-5 lung fibroblast cells.; conditions: IC50
[2] = test system: Trypanosoma brucei brucei; assay: microbe, parasite or virus in culture; assay type: functional, organism-based, STIB 795
Description: DNDI: Inhibition of Human African Trypanosomiasis (HAT), STIB 795, in vitro

| SMILES | IC50 [1] [µM] | IC50 ([2]; Trypanosoma brucei, STIB 795) [µM] | IC50 [2] |
| --- | --- | --- | --- |
| O=C1Nc2ccc(OC(F)(F)F)cc2C1=O | > 41.7 | 4.72 |  |
| O=C1/C(=C\c2cccnc2)CCc2ccccc21 | > 20.8 | 5.02 |  |
| N=C(NOC(=O)N1CCOCC1)c1ccccc1 | > 4.17 | 1.19 |  |
| Cc1[nH]c2ccccc2c1/C=C1\SC(=N)N(c2nccs2)C1=O | > 20.8 | 2.15 |  |
| C=CCS(=O)(=O)c1nc2ccccc2s1 | > 20.8 | 5.73 |  |
| Cc1cc(C)c2c(N)c3cccc(C)c3nc2n1 | 0.9 | 0.35 |  |
| Clc1ccc2nnnc(-c3ccccc3)c2c1 | 4.48 | 2.81 |  |
| NC1=C(Cl)C(=O)c2ccccc2C1=O | > 41.7 | 2.44 |  |
| CN(C)c1ccc(/C=C/c2cc[n+](C)cc2)cc1 | > 20.8 | 0.458 |  |
| Cc1ccccc1C(=O)Nc1ccccn1 | > 41.7 | 1.22 |  |
| Nc1ccc2ccc3cccnc3c2n1 | > 4.17 | 2.4 |  |
| Oc1nncc(N/N=C/c2ccccn2)n1 | > 20.8 | 5.64 |  |
| CC1=NN(C(=O)c2ccccc2O)C(C)(O)C1 (stereo unspecified) | > 1.04 | 0.66 |  |
| CCOC(=O)c1ccc(CN2C(=O)C(=O)c3cc(OC(F)(F)F)ccc32)o1 | > 20.8 | 4.03 |  |
| COc1ccc(N2C(=O)CN(Cc3sccc3C)C2=S)cc1Cl | > 41.7 | 4.94 |  |
| O/N=C1C=C/C(=N\O)c2ncccc2/1 | 4.89 | 2.32 |  |
| Cc1ccc(CN(C)C)c(O)c(=O)c1 | > 20.8 | 5.63 |  |
| O=C(O)c1n[nH]c2c1CCCCCC2 | > 4.17 | ≤ 2.64 |  |
| CCc1ccc(/C=N\n2cnnc2)cc1 | > 41.7 | 0.647 |  |
| CC(=O)Cc1ccc2cccc(O)c2n1 | > 4.17 | 4.56 |  |
| Clc1ccnc2c1ccc1nn[nH]c12 | > 41.7 | 4.39 |  |
| CCOc1ccc(/C=N/NC(=N)N)cc1 | > 41.7 | 5.66 |  |
| Nc1ccsc1/C=C/c1cccs1 | > 41.7 | 5.05 |  |
| Cc1n[nH]c(C)c1/N=N/N1CCOCC1 | 3.61 | 0.7 |  |
| OC12C[C@@H](C3CO[C@@H]1O3)n1nnnc1N2 | > 20.8 | 4.84 |  |
| [O-][n+]1onc2cc(Cl)c3nonc3c21 | > 4.17 | 5.23 |  |
| O=C(c1ccccc1)c1ccc(O)c(O)c1 | > 41.7 | 1.2 |  |

| SMILES | IC50 [1] [µM] | IC50 ([2]; Trypanosoma brucei, STIB 795) [µM] | IC50 [2] |
| --- | --- | --- | --- |
| Oc1cccc2ccc(CNC3CC3)nc12 | > 20.8 | 5.36 |  |
| Cc1nc2c(cc(O)c3ccccc32)s1 | > 41.7 | 5.47 |  |
| Cc1cc(C)c2c(c1)CC(C)(C)C(=O)C2=O | > 41.7 | 3.3 |  |
| Cc1cc(Cl)c2c(N)c(C)cc(C)c2n1 | > 41.7 | 4.09 |  |
| NC1CCCc2c1[nH]c1ccc(Cl)cc21 (stereo unspecified) | > 20.8 |  | 0.823 µM and 2.29 µM |
| NC(N)=N/N=C1/C(=O)Nc2ccc(F)cc21 | > 41.7 | 1.42 |  |
| O=C1Nc2ccccc2/C1=C/c1ccccn1 | > 20.8 | 5.25 | 5.23 µM |
| C=CCNc1nc(N)c(/C(N)=N\C#N)s1 | > 41.7 | 3.21 |  |
| CC1(C)CC(=S)C=C(N2CCCCC2)C1 | > 41.7 | 1.95 |  |
| CCn1c2cccc(=O)c-2nc2ccccc21 | > 20.8 | < 0.04 |  |
| Nc1ccc(Nc2coc3ccccc23)cc1 | > 20.8 | 3.68 |  |
| CSC(=S)N/N=C(\C)c1ccncn1 | > 4.17 | 5.02 |  |
| O=C(NO)c1sc2ccccc2c1Cl | > 41.7 | 3.76 |  |
| COc1cccc2c(N)c3c(cnn3C)nc12 | > 4.17 | 1.21 |  |
| CC(C)(C)c1ccc(/C=N/n2cnnc2)cc1 | > 41.7 | 0.49 |  |
| NC(=O)c1ccc(Nc2ccccc2)[nH]c1=O | 5.28 | 5.52 |  |
| Cc1ccc(C(=O)C(CO)n2ccnc2)cc1 (stereo unspecified) | > 41.7 | 2.05 |  |
| Cc1cc(Cl)n(C)c2nc3ccccc3c1-2 | > 10.4 | 0.631 |  |
| CC(C)(C)C/C(=N\NC(=N)N)c1ccccc1 | > 20.8 | 5.39 |  |
| C/N=c1\nnc(Nc2ccccc2O)c(N)o1 | 4.68 | 0.287 |  |
| Cc1cccc(N2CCN(CCN)CC2)c1C | > 41.7 | 5.21 |  |
| CCCCOc1ccccc1/C=N/NC(=N)N | > 41.7 | 5.38 |  |
| O=C(COc1ccc(Cl)cc1Cl)NO | > 20.8 | 0.921 |  |
| CCCCNCc1[nH]c2ccccc2c1Cl | > 20.8 | 3.1 |  |
| CCN1CCO/C1=C\C=C\C1=[N+](CC)CCO1 | > 41.7 | 0.166 |  |
| Nc1ccc2c(c1)C(=O)C(=O)c1cc(N)ccc1-2 | > 20.8 | 0.975 |  |
| O=C1CN(Cc2ccccc2)c2ccccc2N1 | 8.3 | 1.01 |  |

| SMILES | IC50 [1] [µM] | IC50 ([2]; Trypanosoma brucei, STIB 795) [µM] | IC50 [2] |
| --- | --- | --- | --- |
| CCCCOc1ccc(CSC(=N)N)cc1 | > 20.8 | 5.48 |  |
| O=C(NNc1cccccc1=O)c1ccccc1 | > 10.4 | 5.18 |  |
| CN1c2ccccc2N(C)C1c1ccc(O)cc1 | > 41.7 | 3.47 |  |
| C/C(CC(C)(C)C1CCCCC1)=N/NC(N)N | > 4.17 | 1.4 |  |
| CC1=NN(c2ccc3cccc(O)c3n2)C(=O)C1 | > 10.4 | 1.31 |  |
| Cn1cnn(C2CC(=O)C3OCC2O3)c1=S (stereo unspecified) | > 20.8 | 3.7 | 2.07 µM |
| CC1CC2=C(C(=O)c3ccccc3C2=O)C(C)O1 (stereo unspecified) | > 41.7 | 5.59 |  |
| COc1ccc(O)c(/C=N/Nc2ccccn2)c1 | > 20.8 | 4.69 |  |
| CNC(C)(C)Cc1c2c(cc3c1CCC3)CCC2 | > 41.7 | 4.62 |  |
| COc1cc(OC)c2nc(C)c3c(c2c1)CNC3 | 7.02 | 2.5 |  |
| Cc1ccc(O)c(NC(=O)c2nc(N)n(C)n2)c1 | 1.84 | 0.196 |  |
| CCC1CO/C(=C2\Sc3ccccc3C2=O)N1 (stereo unspecified) | > 20.8 | 5.08 |  |
| CN(C)C(=S)N/N=C1\Cc2ccccc2C1=O | > 20.8 | 0.989 |  |
| Oc1c(/N=N/c2ccccn2)ccc2ccccc12 | > 20.8 | 0.718 |  |
| N=c1n(Cc2ccccc2)c2ccccc2n1CC(O)c1ccc(Cl)cc1 (stereo unspecified) | > 20.8 | 5.48 | 5.31 µM |
| N#Cc1ccccc1N=NNc1ccccc1C#N | > 41.7 | 5.08 |  |
| CC1=CC(C)(C)N=C(Nc2nc(C)c3cc(C)cc(C)c3n2)N1 | 5.93 | 3.73 |  |
| CN1CCN(Nc2ccnc3cc4ccccc4cc23)CC1 | 3.36 | 0.357 |  |
| Cc1cc(NC2CCCCC2)nc(NCc2ccccc2)n1 | > 41.7 | 4.49 |  |
| Oc1c(CN2CCCCC2)ccc2cccnc12 | > 4.17 | 3.78 |  |
| O=C1c2ccccc2C(=O)c2c1ccc1nonc21 | > 20.8 | 0.394 |  |
| CCCc1c(CC)c(=N)c2ccccc2n1C | > 41.7 | 4.55 |  |
| CCN1C(C)=C(C)S/C1=C\c1ccc2cc(C)ccc2[n+]1C | > 4.17 | 0.317 |  |
| CC(C)(C)C1CCc2nc(N)nc(N)c2C1 (stereo unspecified) | > 4.17 | ≤ 3.36 |  |
| COc1cc2nc(N(C)C)nc(N)c2cc1OC | > 20.8 | 5.21 |  |
